The text below walks through data of patent publication US9920050B2, “Fused heterocyclic compound and pest control use thereof” (Sumitomo Chemical Company, Limited, priority 2013, dated 2018).

Each structure is given as a SMILES string.

For the first assay, the system named is Haemaphysalis longicornis. Nature of the assay: Test Example 11: coated screw tube contact test, Haemaphysalis longicornis ticks. It counts as in vivo. The conditions noted are these: 2 mg compound coated on inner wall of screw tube, unfed nymphal ticks, after 2 days. How it is done:
Two milligrams of each of Compounds of Present Invention 8 to 9, 20, 22 and 31 to 32 was weighed out in a screw tube (Maruemu No. 5; 27×55 mm), and 0.2 mL of acetone was added thereto, and the screw tube was sealed with a cap to dissolve the compound. The screw tube was rotated and inverted to uniformly coat the drug solution onto the whole inner wall of the tube. After removing the cap, the solution was air-dried for about 2 hours, then unfed nymphal ticks, Haemaphysalis longicornis (5 ticks/group) were released, and the tube was sealed with the cap. After 2 days, the number of dead insects was counted, and the death rate was calculated according to the following equation: Death rate (%)=100×(Number of dead insects/Number of tested insects)
Regarding `CCS(=O)(=O)c1cc(NC(=O)C2CCC2)cnc1-c1nc2cc(C(F)(F)F)cnc2n1C` [compound 8], the death rate is 100%.
`CCS(=O)(=O)c1cc(NC2CC2)cnc1-c1nc2cc(C(F)(F)F)cnc2n1C` [compound 9] had a death rate of 100%.
In turn, `CCS(=O)(=O)c1cc(NCC2CCOC2)cnc1-c1nc2cc(C(F)(F)F)cnc2n1C` (stereo not drawn) [compound 20] yielded a death rate of 100%.
Same read-out and setting: next, `CCS(=O)(=O)c1cc(NC(=O)C2CC2)cnc1-c1nc2cc(C(F)(F)F)cnc2n1C` [compound 22]: 100%; `CCS(=O)(=O)c1ccc(NC2CC2)nc1-c1nc2cc(C(F)(F)F)cnc2n1C` [compound 31]: 100%; `CCS(=O)(=O)c1ccc(NC2CC2)nc1-c1nc2cc([S+]([O-])C(F)(F)F)ccc2o1` (stereo not drawn) [compound 32]: 100%.

Another assay deals with Musca domestica. Kind of assay: Test Example 8: treated filter paper with sucrose bait, Musca domestica. It counts as in vivo. The conditions noted are these: 500 ppm, 0.7 ml on filter paper, female imagoes, after 24 hours. How it is done:
The formulations of Compounds of Present Invention 1, 9, 15 to 16, 19, 22, 24, 31 to 32, 34, 41 and 45 to 46 as produced in Formulation Example 5 were diluted with water, so as to have a concentration of the active ingredient of 500 ppm, to prepare each test drug solution.
(§1) A filter paper having a diameter of 5.5 cm was spread on the bottom of a polyethylene cup having the same diameter and 0.7 ml of the test drug solution was added dropwise onto the filter paper, and 30 mg of sucrose was uniformly placed as bait. Into the polyethylene cup, 10 female imagoes of Musca domestica were released, and the cup was sealed with a lid. After 24 hours, the life and death of Musca domestica was examined, the number of dead insects was counted, and the death rate was calculated according to the following equation. Death rate (%)=(Number of dead insects/Number of tested insects)×100
`CCS(=O)(=O)c1cc(NC(=O)OCc2ccccc2)cnc1-c1nc2cc(C(F)(F)F)cnc2n1C` [compound 1]: the death rate is 100%.
The compound `CCS(=O)(=O)c1cc(NC2CC2)cnc1-c1nc2cc(C(F)(F)F)cnc2n1C` [compound 9] showed a death rate of 100%.
With `CCS(=O)(=O)c1cc(NNC(=O)OC)cnc1-c1nc2cc(C(F)(F)F)cnc2n1C` [compound 15], the death rate was 100%.
Same read-out and setting: the result for `CCS(=O)(=O)c1cc(NC(=O)C(=O)N(C)C)cnc1-c1nc2cc(C(F)(F)F)cnc2n1C` [compound 16] reads 100%.
With `CCS(=O)(=O)c1cc(NN)cnc1-c1nc2cc(C(F)(F)F)cnc2n1C` [compound 19], the death rate is reported as 100%.
Regarding `CCS(=O)(=O)c1cc(NC(=O)C2CC2)cnc1-c1nc2cc(C(F)(F)F)cnc2n1C` [compound 22], the death rate is reported as 100%.
The same measure, in the same setting: next, `CCS(=O)(=O)c1cc(NC(=O)c2ccccn2)cnc1-c1nc2cc(C(F)(F)F)cnc2n1C` [compound 24]: 100%; `CCS(=O)(=O)c1ccc(NC2CC2)nc1-c1nc2cc(C(F)(F)F)cnc2n1C` [compound 31]: 100%.
On to `CCS(=O)(=O)c1ccc(NC2CC2)nc1-c1nc2cc([S+]([O-])C(F)(F)F)ccc2o1` (stereo not drawn) [compound 32], for which the death rate was 100%.
Compound `CCS(=O)(=O)c1ccc(NCc2ccccc2)nc1-c1nc2cc([S+]([O-])C(F)(F)F)ccc2o1` (stereo not drawn) [compound 34] yielded a death rate of 100%.
Compound `CCS(CC)=Nc1ccc(S(=O)(=O)CC)c(-c2nc3cc([S+]([O-])C(F)(F)F)ccc3o2)n1` (stereo not drawn) [compound 41] showed a death rate of 100%.
`CCS(=O)(=O)c1ccc(NC(=O)C2CC2)nc1-c1nc2cc([S+]([O-])C(F)(F)F)ccc2o1` (stereo not drawn) [compound 45] yielded a death rate of 100%.
For `CCS(=O)(=O)c1ccc(NCc2ccc(Cl)nc2)nc1-c1nc2cc([S+]([O-])C(F)(F)F)ccc2o1` (stereo not drawn) [compound 46], the death rate worked out at 100%.

In the next assay the test system is Blattella germanica. Kind of assay: Test Example 9: treated filter paper with sucrose bait, Blattella germanica. It counts as in vivo. The conditions noted are these: 500 ppm, 0.7 ml on filter paper, male imagoes, after 6 days. On the procedure:
The formulations of Compounds of Present Invention 9, 15 to 16, 19, 22, 30 to 32, 34, 41 and 45 to 46 as produced in Formulation Example 5 were diluted with water, so as to have a concentration of the active ingredient of 500 ppm, to prepare each test drug solution.
as §1, with “2 male” for “10 female”, “Blattella germanica” for “Musca domestica”, “6 days,” for “24 hours,”
`CCS(=O)(=O)c1cc(NC2CC2)cnc1-c1nc2cc(C(F)(F)F)cnc2n1C` [compound 9] returned a death rate of 100%.
Consider `CCS(=O)(=O)c1cc(NNC(=O)OC)cnc1-c1nc2cc(C(F)(F)F)cnc2n1C` [compound 15], for which the death rate is recorded as 100%.
Regarding `CCS(=O)(=O)c1cc(NC(=O)C(=O)N(C)C)cnc1-c1nc2cc(C(F)(F)F)cnc2n1C` [compound 16], the death rate came to 100%.
`CCS(=O)(=O)c1cc(NN)cnc1-c1nc2cc(C(F)(F)F)cnc2n1C` [compound 19] returned a death rate of 100%.
In turn, `CCS(=O)(=O)c1cc(NC(=O)C2CC2)cnc1-c1nc2cc(C(F)(F)F)cnc2n1C` [compound 22] gave a death rate of 100%.
On to `CCS(=O)(=O)c1ccc(NOC)nc1-c1nc2cc(C(F)(F)F)cnc2n1C` [compound 30], for which the death rate is listed as 100%.
Regarding `CCS(=O)(=O)c1ccc(NC2CC2)nc1-c1nc2cc([S+]([O-])C(F)(F)F)ccc2o1` (stereo not drawn) [compound 32], the death rate was 100%.
`CCS(=O)(=O)c1ccc(NCc2ccccc2)nc1-c1nc2cc([S+]([O-])C(F)(F)F)ccc2o1` (stereo not drawn) [compound 34] showed a death rate of 100%.
As for `CCS(CC)=Nc1ccc(S(=O)(=O)CC)c(-c2nc3cc([S+]([O-])C(F)(F)F)ccc3o2)n1` (stereo not drawn) [compound 41], the death rate was 100%.
On the same count and under the same terms, next, `CCS(=O)(=O)c1ccc(NC(=O)C2CC2)nc1-c1nc2cc([S+]([O-])C(F)(F)F)ccc2o1` (stereo not drawn) [compound 45]: 100%.
On the same count and under the same terms, the result for `CCS(=O)(=O)c1ccc(NCc2ccc(Cl)nc2)nc1-c1nc2cc([S+]([O-])C(F)(F)F)ccc2o1` (stereo not drawn) [compound 46] reads 100%.
